Results reported in publication PMC4646457 (PLoS ONE, 2015).
Where two headings read alike, the source gives them in different places.

Tests used:
[1] = cited from earlier work
[2] = in vivo; conditions: female, CB-17 SCID, mouse; for MRT last: MRTlast
[3] = system: plasma proteins; parameters: method as in EGF10027 protocol, CIB RM2000/00481/06; conditions: mouse, rat, dog, rabbit and human plasma, 1 to 100 µM; ref EGF10027 protocol, CIB RM2000/00481/06; cited from earlier work
[4] = parameters: method as in EGF10027 protocol, CIB RM2000/00481/06; conditions: pregnant rats or rabbits, period of major organogenesis; ref EGF10027 protocol, CIB RM2000/00481/06; cited from earlier work
[5] = EGF10027 steady-state lapatinib concentrations in patient plasma and tumor; format: in vivo, human; conditions: for concentration at 12 h / concentration at 24 h: female, human, oral; for concentration at 12 h: 500 mg
[6] = system: human CYP450 enzymes; conditions: also CYP3A5, lesser extent CYP2C19; ref EGF10027 protocol, CIB RM2000/00481/06; cited from earlier work
[7] = cited from earlier work; for frequency of achieving ≥75% inhibition of one of four key biomarkers (p-EGFR, p-ErbB2, p-ERK1/2, p-AKT): tumor
[8] = system: CYP3A4; parameters: method as in EGF10027 protocol, CIB RM2000/00481/06; conditions: ref EGF10027 protocol, CIB RM2000/00481/06; cited from earlier work
[9] = ref EGF10027 protocol, CIB RM2000/00481/06, cited from earlier work
[10] = system: EGFR; conditions: read-out: IC50 for EGFR; stated as target binding affinity, ref not given; cited from earlier work
[11] = BT474 tumor, po, 100 mg/kg, 100 mg/kg BID, multiple doses
[12] = BT474 tumor, po, 100 mg/kg, single dose
[13] = BT474 tumor, po, 200 mg/kg, 200 mg/kg QD, multiple doses
[14] = BT474 tumor, po, 200 mg/kg, single dose
[15] = blood, oral, 100 mg/kg, individual animals 1-3, blood, 100 mg/kg BID
[16] = blood, po, 100 mg/kg, 100 mg/kg BID, multiple doses
[17] = blood, po, 100 mg/kg, single dose
[18] = blood, po, 200 mg/kg, 200 mg/kg QD, multiple doses
[19] = blood, po, 200 mg/kg, single dose
[20] = kidney, oral, 100 mg/kg, single dose
[21] = kidney, oral, 100 mg/kg, individual animals 1-3, kidney, 100 mg/kg BID
[22] = kidney, oral, 200 mg/kg, single dose
[23] = kidney, oral, 200 mg/kg, individual animals 1-3, kidney, 200 mg/kg QD
[24] = kidney, po, 100 mg/kg, 100 mg/kg BID, multiple doses
[25] = kidney, po, 200 mg/kg, 200 mg/kg QD, multiple doses
[26] = liver, oral, 100 mg/kg, single dose
[27] = liver, oral, 100 mg/kg, individual animals 1-3, liver, 100 mg/kg BID
[28] = liver, oral, 200 mg/kg, single dose
[29] = liver, oral, 200 mg/kg, individual animals 1-3, liver, 200 mg/kg QD
[30] = liver, po, 100 mg/kg, 100 mg/kg BID, multiple doses
[31] = liver, po, 200 mg/kg, 200 mg/kg QD, multiple doses
[32] = tumor, oral, 100 mg/kg, individual animals 1-3, tumor, 100 mg/kg BID
[33] = tumor, oral, 200 mg/kg, individual animals 1-3, tumor, 200 mg/kg QD

## CS(=O)(=O)CCNCc1ccc(-c2ccc3ncnc(Nc4ccc(OCc5cccc(F)c5)c(Cl)c4)c3c2)o1 [lapatinib]
[1]; patients, doses up to 1800 mg QD, ref EGF10027 protocol
  fluctuation between peak and trough plasma concentrations at steady state: […]
[1]; previous clinical studies, 1500 mg QD
  Cmin: […]
[1]; ref EGF10027 protocol, original text
  plasma half-life: […]
[2]; BT474 tumor, oral, 200 mg/kg, individual animals 1-3, tumor, 200 mg/kg QD
  concentration at 96 h: […]
[2]; BT474 tumor, po, 100 mg/kg, AUClast, 100 mg/kg BID, multiple doses
  AUC(0-t): […]
[2]; BT474 tumor, po, 100 mg/kg, AUClast, single dose
  AUC(0-t): […]
[2]; [11]
  Cmax: […]
  MRT last: […]
  Tmax: […]
[2]; [12]
  Cmax: […]
  MRT last: […]
  Tmax: […]
[2]; BT474 tumor, po, 200 mg/kg, AUClast, 200 mg/kg QD, multiple doses
  AUC(0-t): […]
[2]; BT474 tumor, po, 200 mg/kg, AUClast, single dose
  AUC(0-t): […]
[2]; [13]
  Cmax: […]
  MRT last: […]
  Tmax: […]
[2]; [14]
  Cmax: […]
  MRT last: […]
  Tmax: […]
[2]; blood, liver, kidney, tumor, oral, 100 mg/kg
  half-life: […]
[2]; [15]
  concentration at 10 h: 3.08 µg/mL
[2]; blood, oral, 200 mg/kg, individual animals 1-3, blood, 200 mg/kg QD
  concentration at 24 h: […]
[2]; blood, po, 100 mg/kg, AUClast, 100 mg/kg BID, multiple doses
  AUC(0-t): […]
[2]; blood, po, 100 mg/kg, AUClast, single dose
  AUC(0-t): […]
[2]; [16]
  Cmax: […]
  MRT last: […]
  Tmax: […]
[2]; [17]
  Cmax: […]
  MRT last: […]
  Tmax: […]
[2]; blood, po, 200 mg/kg, AUClast, 200 mg/kg QD, multiple doses
  AUC(0-t): […]
[2]; blood, po, 200 mg/kg, AUClast, single dose
  AUC(0-t): […]
[2]; [18]
  Cmax: […]
  MRT last: […]
  Tmax: […]
[2]; [19]
  Cmax: 8.22 µg/mL
[2]; kidney, oral, 100 mg/kg, AUClast, single dose
  AUC(0-t): […]
[2]; [20]
  Cmax: 29.8 µg/mL
[2]; [21]
  concentration at 48 h: 0.114 µg/mL
[2]; kidney, oral, 200 mg/kg, AUClast, single dose
  AUC(0-t): […]
[2]; [22]
  Cmax: […]
  MRT last: […]
  Tmax: […]
[2]; [23]
  concentration at 1 h: 48.3 µg/mL
[2]; kidney, po, 100 mg/kg, AUClast, 100 mg/kg BID, multiple doses
  AUC(0-t): […]
[2]; [24]
  Cmax: […]
  MRT last: […]
  Tmax: […]
[2]; kidney, po, 200 mg/kg, AUClast, 200 mg/kg QD, multiple doses
  AUC(0-t): […]
[2]; [25]
  Cmax: […]
  MRT last: […]
  Tmax: […]
[2]; liver, oral, 100 mg/kg, AUClast, single dose
  AUC(0-t): […]
[2]; [26]
  Cmax: […]
  MRT last: […]
  Tmax: […]
[2]; [27]
  concentration at 48 h: 0.193 µg/mL
[2]; liver, oral, 200 mg/kg, AUClast, single dose
  AUC(0-t): […]
[2]; [28]
  Cmax: […]
  MRT last: […]
  Tmax: […]
[2]; [29]
  concentration at 1 h: […]
  concentration at 4 h: […]
  concentration at 48 h: […]
  concentration at 72 h: […]
  concentration at 96 h: […]
[2]; liver, po, 100 mg/kg, AUClast, 100 mg/kg BID, multiple doses
  AUC(0-t): […]
[2]; [30]
  Cmax: […]
  MRT last: […]
  Tmax: […]
[2]; liver, po, 200 mg/kg, AUClast, 200 mg/kg QD, multiple doses
  AUC(0-t): […]
[2]; [31]
  Cmax: […]
  MRT last: […]
  Tmax: […]
[2]; tumor, oral
  half-life: […]
[2]; [32]
  concentration at 4 h: 51.4 µg/mL
  concentration at 10 h: 59.2 µg/mL
[2]; [33]
  concentration at 4 h: […]
  concentration at 10 h: […]
[2]; tumor, po, 100 mg/kg, AUC 0–12, tumor, median (range), n = 3, after fifth dose of 100 mg/kg BID
  AUC(0-t): […]
[2]; tumor, po, 200 mg/kg, AUC 0–24, tumor, median (range), n = 3, after third dose of 200 mg/kg QD
  AUC(0-t): […]
[2]; whole blood, oral
  half-life: […]
[2]; whole blood, po, 100 mg/kg, AUC 0–12, blood, median (range), n = 3, after fifth dose of 100 mg/kg BID
  AUC(0-t): […]
[2]; whole blood, po, 200 mg/kg, AUC 0–24, blood, median (range), n = 3, after third dose of 200 mg/kg QD
  AUC(0-t): […]
[3]
  plasma protein binding: […]
[4]
  fetal malformations: No fetal malform ations
[5]; plasma, patients, median (range), 500 mg BID (n = 5), steady state, read-out: Plasma Cmin
  concentration at 12 h: 2.75 µM
[5]; plasma, 1000 mg, patients, median (range), 1000 mg QD (n = 5), steady state, read-out: Plasma Cmin
  concentration at 24 h: 1.54 µM
[5]; plasma, 1500 mg, patients, median (range), 1500 mg QD (n = 3), steady state, read-out: Plasma Cmin
  concentration at 24 h: […]
[5]; tumor, patients, median (range), 500 mg BID (n = 5), steady state, read-out: Tumor Cmin
  concentration at 12 h: […]
[5]; tumor, 1000 mg, patients, median (range), 1000 mg QD (n = 5), steady state, read-out: Tumor Cmin
  concentration at 24 h: […]
[5]; tumor, 1500 mg, patients, median (range), 1500 mg QD (n = 3), steady state, read-out: Tumor Cmin
  concentration at 24 h: […]
[5]; patients, median (range), 500 mg BID (n = 5), steady state
  Tumor Cmin: […]
[5]; subject 5
  Lap conc, tumor: 25.60 µM
[5]; subject 124
  Lap conc, tumor: […]
[5]; subject 801
  Lap conc, tumor: 1.98 µM
[5]; subject 803
  Lap conc, tumor: […]
[5]; subject 804
  Lap conc, tumor: […]
[5]; subject 1401
  Lap conc, tumor: […]
[5]; subject 1403
  Lap conc, tumor: […]
[5]; subject 1405
  Lap conc, tumor: […]
[6]
  metabolizing CYP enzymes: metabolized predominantl y by CYP3A4
[7]; cancer patients, preliminary, ref study EGF10004
  incidence of rash: […]
[7]; patients, ref preliminary analysis of EGF10004
  maximum tolerated dose (not reached at maximum dose given): […]
[7]; 500 mg once daily, ref study EGF10004, listed as GW572016
  frequency of achieving ≥75% inhibition of one of four key biomarkers (p-EGFR, p-ErbB2, p-ERK1/2, p-AKT): […]
[7]; 650 mg once daily, ref study EGF10004, listed as GW572016
  frequency of achieving ≥75% inhibition of one of four key biomarkers (p-EGFR, p-ErbB2, p-ERK1/2, p-AKT): […]
[7]; 900 mg once daily, ref study EGF10004, listed as GW572016
  frequency of achieving ≥75% inhibition of one of four key biomarkers (p-EGFR, p-ErbB2, p-ERK1/2, p-AKT): […]
[7]; 1200 mg once daily, ref study EGF10004
  frequency of achieving ≥75% inhibition of one of four key biomarkers (p-EGFR, p-ErbB2, p-ERK1/2, p-AKT): […]
[7]; 1600 mg once daily, ref study EGF10004, listed as GW572016
  frequency of achieving ≥75% inhibition of one of four key biomarkers (p-EGFR, p-ErbB2, p-ERK1/2, p-AKT): […]
[8]
  CYP3A4 inhibition: inhibitory pot ential towards CYP3A4
[9]; female rats
  NOAEL: […]
[9]; male rats
  NOAEL: […]
[9]; rats, up to 13 weeks
  generally well tolerated dose: […]
[10]
  IC50: […]
